This note sets out measurements from ChEMBL document CHEMBL1149544, “R-(-)-N-alkyl-11-hydroxy-10-hydroxymethyl- and 10-methyl-aporphines as 5-HT1A receptor ligands” (Bioorg Med Chem Lett, 2007).

In one assay the target is D(1A) dopamine receptor (Rattus norvegicus, UniProt P18901). In words: Displacement of [3H]SCH-23390 from rat dopamine D1 receptor. (In a radioligand displacement assay an active substance lowers the binding of a labelled ligand.)
The target in another assay is D(2) dopamine receptor (Rattus norvegicus, UniProt P61169). Briefly: Displacement of [3H]nemonapride from rat dopamine D2 receptor.
Chain of D(2) dopamine receptor (P61169 whole entry): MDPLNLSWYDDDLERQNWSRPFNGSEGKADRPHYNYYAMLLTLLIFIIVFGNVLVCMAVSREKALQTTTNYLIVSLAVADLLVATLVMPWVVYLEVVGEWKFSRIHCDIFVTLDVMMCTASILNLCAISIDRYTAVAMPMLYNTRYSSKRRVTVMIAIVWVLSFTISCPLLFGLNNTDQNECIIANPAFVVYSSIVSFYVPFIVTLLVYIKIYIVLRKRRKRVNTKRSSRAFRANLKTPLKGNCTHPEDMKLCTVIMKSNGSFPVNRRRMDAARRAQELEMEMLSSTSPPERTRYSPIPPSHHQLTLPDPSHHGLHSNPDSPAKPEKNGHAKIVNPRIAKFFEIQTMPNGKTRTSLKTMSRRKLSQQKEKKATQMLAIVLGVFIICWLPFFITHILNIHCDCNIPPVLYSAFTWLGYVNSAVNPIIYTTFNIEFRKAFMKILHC
For assay [1], the target named is T1, 5-hydroxytryptamine receptor 1A (Rattus norvegicus, UniProt P19327).
T1 sequence (P19327 whole entry): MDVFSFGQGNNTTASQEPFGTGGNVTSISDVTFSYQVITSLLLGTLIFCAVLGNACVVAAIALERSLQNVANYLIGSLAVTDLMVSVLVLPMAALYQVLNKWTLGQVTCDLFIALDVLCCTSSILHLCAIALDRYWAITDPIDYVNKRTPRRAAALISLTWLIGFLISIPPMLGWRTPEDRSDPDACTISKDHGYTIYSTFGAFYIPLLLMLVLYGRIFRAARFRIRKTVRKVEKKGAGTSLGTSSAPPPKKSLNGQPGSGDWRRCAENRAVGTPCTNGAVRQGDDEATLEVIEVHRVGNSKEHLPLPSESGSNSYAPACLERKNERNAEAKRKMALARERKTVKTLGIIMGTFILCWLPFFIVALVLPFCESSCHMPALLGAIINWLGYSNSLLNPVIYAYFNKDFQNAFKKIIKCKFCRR
Briefly: Displacement of [3H]8-OH-DPAT from rat 5HT1A receptor.

The species named for another assay is Rattus norvegicus. In words: Selectivity for rat 5HT1A over rat 5HT2A.
In assay [2] the target is 5-hydroxytryptamine receptor 2A (Rattus norvegicus, UniProt P14842). Briefly: Displacement of [3H]ketanserin from rat 5HT2A receptor.
Chain of 5-hydroxytryptamine receptor 2A (P14842 whole entry): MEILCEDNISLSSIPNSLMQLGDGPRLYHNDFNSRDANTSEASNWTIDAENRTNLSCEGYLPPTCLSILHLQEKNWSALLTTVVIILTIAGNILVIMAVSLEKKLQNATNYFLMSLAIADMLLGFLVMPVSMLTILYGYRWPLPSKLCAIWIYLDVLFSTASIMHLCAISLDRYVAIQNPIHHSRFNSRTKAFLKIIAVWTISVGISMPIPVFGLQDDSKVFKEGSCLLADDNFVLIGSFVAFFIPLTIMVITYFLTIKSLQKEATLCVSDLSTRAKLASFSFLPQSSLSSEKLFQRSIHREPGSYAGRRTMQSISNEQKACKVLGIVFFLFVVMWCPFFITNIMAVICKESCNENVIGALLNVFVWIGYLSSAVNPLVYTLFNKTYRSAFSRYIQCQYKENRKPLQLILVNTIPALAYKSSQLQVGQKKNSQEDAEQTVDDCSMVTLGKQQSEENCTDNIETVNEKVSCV

Chain of D(1A) dopamine receptor (P18901 whole entry): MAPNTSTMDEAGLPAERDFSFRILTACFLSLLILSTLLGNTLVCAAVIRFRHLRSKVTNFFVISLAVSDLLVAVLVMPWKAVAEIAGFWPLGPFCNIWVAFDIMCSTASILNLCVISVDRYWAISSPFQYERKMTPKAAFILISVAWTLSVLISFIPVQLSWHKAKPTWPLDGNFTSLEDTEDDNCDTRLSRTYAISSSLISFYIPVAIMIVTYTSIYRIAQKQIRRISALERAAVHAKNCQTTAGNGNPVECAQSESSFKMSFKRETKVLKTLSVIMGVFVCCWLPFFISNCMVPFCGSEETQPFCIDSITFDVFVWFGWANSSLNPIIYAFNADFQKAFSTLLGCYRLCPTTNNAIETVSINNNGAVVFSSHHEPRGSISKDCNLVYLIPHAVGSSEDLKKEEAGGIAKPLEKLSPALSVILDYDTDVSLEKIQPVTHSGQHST

One may read the Ki as the dissociation constant of the complex between target and ligand, obtained from inhibition or displacement. Higher therefore signals weaker binding. In the case of `CCCN1CCc2cccc3c2[C@H]1Cc1ccc(CO)c(O)c1-3`, the inhibition constant Ki at D(1A) dopamine receptor was 1.98 µM; at D(2) dopamine receptor, 6.06 µM; in assay [1], 0.375 µM.
In the same order, the values of `Cc1ccc2c(c1O)-c1cccc3c1[C@@H](C2)N(C)CC3` are 9.65 µM, 11.5 µM and 0.216 µM.
Regarding `COc1cc2c3c(c1)-c1c(ccc(C)c1O)C[C@H]3N(C)CC2`, the inhibition constant Ki on D(1A) dopamine receptor amounted to 1.78 µM; in assay [2], 0.271 µM; at D(2) dopamine receptor, 3.76 µM; in assay [1], 0.0215 µM. In the assay filed under Rattus norvegicus, the Ratio Ki was found to be 108.
For the compound `CCCN1CCc2cc(OC)cc3c2[C@H]1Cc1ccc(C)c(O)c1-3`, the results for the Ki (on D(1A) dopamine receptor; on D(2) dopamine receptor; in assay [1]) were 2.79 µM, 1.35 µM and 0.48 µM, respectively.
With `CN1CCc2cccc3c2[C@H]1Cc1ccc(CO)c(O)c1-3`, the inhibition constant Ki came out at 1.39 µM at D(1A) dopamine receptor, 0.137 µM in assay [2], 7 µM at D(2) dopamine receptor and 0.0024 µM in assay [1]. For the same compound, in the assay listed under Rattus norvegicus, the Ratio Ki was 57.
